Assay [1] concerns the target T1, Histone-lysine N-methyltransferase EHMT2 (Homo sapiens) (UniProt Q96KQ7).
T1 sequence (whole entry): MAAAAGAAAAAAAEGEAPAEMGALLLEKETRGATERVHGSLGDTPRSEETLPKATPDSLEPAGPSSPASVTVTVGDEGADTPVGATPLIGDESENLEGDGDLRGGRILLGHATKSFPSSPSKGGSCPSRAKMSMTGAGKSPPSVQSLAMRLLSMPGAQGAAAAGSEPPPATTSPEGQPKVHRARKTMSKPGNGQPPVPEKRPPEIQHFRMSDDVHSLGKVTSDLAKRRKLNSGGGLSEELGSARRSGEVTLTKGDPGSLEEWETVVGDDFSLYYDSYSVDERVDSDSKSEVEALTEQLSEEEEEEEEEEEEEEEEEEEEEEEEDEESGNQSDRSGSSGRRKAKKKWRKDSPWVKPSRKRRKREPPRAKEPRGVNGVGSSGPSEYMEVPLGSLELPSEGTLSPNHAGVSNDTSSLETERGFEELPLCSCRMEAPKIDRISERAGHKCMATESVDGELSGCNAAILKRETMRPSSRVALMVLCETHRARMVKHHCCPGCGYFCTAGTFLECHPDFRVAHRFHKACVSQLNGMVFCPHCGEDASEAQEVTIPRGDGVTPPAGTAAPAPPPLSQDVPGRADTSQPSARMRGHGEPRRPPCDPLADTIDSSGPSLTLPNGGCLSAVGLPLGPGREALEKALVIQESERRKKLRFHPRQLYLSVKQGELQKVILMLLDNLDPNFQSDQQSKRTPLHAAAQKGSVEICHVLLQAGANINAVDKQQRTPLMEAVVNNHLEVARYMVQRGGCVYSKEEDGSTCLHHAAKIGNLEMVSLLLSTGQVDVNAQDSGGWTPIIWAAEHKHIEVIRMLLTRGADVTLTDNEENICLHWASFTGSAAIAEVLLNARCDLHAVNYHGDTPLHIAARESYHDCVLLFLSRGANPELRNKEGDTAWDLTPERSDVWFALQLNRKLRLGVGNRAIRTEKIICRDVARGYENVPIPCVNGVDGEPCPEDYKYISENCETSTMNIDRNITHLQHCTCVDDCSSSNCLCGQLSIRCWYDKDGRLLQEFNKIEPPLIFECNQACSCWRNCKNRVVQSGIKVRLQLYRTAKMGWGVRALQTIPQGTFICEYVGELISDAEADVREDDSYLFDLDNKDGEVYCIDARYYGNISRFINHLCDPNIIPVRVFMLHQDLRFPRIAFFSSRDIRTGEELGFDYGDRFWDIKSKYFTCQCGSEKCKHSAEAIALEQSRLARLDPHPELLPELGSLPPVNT
Nature of the assay: Inhibition of G9a at 1 uM by Thioglo assay.

Assay [2] deals with T2, Histone-lysine N-methyltransferase EHMT2 (Homo sapiens, UniProt Q96KQ7).
T2 sequence (Q96KQ7 whole entry): T1 sequence (whole entry)
Put plainly: Inhibition of G9a by Alpha screen assay. (Alpha assays give light when donor and acceptor beads are brought close together.)

Assay [3] has as its target T2, Histone-lysine N-methyltransferase EHMT2.
Description: Inhibition of G9a by Thioglo assay
In assay [4] the target is T3, Muscarinic acetylcholine receptor M2 (Homo sapiens) (UniProt P08172).
T3 sequence (whole entry): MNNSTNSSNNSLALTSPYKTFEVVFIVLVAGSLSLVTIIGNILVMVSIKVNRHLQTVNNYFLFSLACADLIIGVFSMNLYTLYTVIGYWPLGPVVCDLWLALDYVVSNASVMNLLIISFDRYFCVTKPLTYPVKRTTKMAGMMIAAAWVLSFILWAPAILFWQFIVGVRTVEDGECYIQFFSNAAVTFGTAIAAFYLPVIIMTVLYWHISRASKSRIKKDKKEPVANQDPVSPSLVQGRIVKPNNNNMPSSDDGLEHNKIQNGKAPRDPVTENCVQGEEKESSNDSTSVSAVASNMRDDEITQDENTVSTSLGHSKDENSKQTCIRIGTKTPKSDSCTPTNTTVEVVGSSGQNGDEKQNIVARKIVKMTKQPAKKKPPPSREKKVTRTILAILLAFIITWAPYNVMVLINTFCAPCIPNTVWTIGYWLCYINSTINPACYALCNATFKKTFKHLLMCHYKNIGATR
Put plainly: Inhibition of muscarinic M2 receptor at 1 uM.

In assay [5] the target is Histamine H1 receptor (Homo sapiens) (UniProt P35367). Nature of the assay: Inhibition of histamine H1 receptor at 1 uM.

Bounds are passed on as bounds.

Histamine H1 receptor (Homo sapiens), sequence (P35367 whole entry): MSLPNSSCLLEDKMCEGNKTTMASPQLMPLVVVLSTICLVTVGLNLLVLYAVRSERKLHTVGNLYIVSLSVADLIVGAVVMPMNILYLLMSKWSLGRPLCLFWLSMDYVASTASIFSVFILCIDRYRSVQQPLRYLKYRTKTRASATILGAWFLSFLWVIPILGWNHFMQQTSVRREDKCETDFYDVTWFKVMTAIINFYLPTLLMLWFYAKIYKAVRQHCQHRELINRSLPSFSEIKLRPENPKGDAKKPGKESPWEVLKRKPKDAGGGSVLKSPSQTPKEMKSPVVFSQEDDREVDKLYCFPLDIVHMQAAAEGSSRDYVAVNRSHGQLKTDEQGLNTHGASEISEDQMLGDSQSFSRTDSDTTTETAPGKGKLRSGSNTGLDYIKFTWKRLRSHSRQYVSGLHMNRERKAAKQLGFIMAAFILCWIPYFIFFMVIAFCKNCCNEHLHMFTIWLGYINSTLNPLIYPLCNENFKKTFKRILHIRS

Broadly, the inhibition is the drop in the measured response relative to a control, in per cent. A word on the IC50: it is the point on the concentration scale where inhibition reaches its midpoint. A higher IC50 goes with a need for much substance. Compound `COc1cc2nc(N3CCCN(C)CC3)nc(NC(C)C)c2cc1OC` came in with an inhibition in assay [1] below 30%. In addition, it took 5.8 µM to reach half-maximal inhibition in assay [2] (IC50).

For the compound `COc1cc2nc(N3CCCN(C)CC3)nc(NC3CCNCC3)c2cc1OC`, the inhibition in assay [1] was below 30%. The IC50 in assay [2] was above 10 µM.

In assay [1], `COc1cc2nc(N3CCCN(C)CC3)nc(NC3CCOCC3)c2cc1OC` showed an inhibition below 30%. This compound returned an IC50 in assay [2] above 10 µM.

Consider `COc1cc2nc(Cl)nc(NC3CCN(C)CC3)c2cc1OC`, for which, in assay [1], the inhibition was below 30%. Moreover, the IC50 in assay [2] was determined as 9.1 µM.

With `COc1cc2nc(N3CCOCC3)nc(NC3CCN(C)CC3)c2cc1OC`, the results for the IC50 in assay [2] and in assay [3] were 0.81 µM and 1.6 µM, respectively.

With `COc1cc2nc(N3CCCCC3)nc(NC3CCN(C)CC3)c2cc1OC`, the concentration for half-maximal inhibition (IC50) in assay [2] was determined as 0.51 µM; in assay [3], 0.55 µM.

As to `COc1cc2nc(N3CCCN(C)CC3)nc(NC3CC3)c2cc1OC`, the inhibition in assay [1] is below 30%. In assay [2], this compound had an IC50 of 5.1 µM.

`COc1cc2c(NC3CCN(C)CC3)nc(N3CCCN(C)CC3)nc2cc1OCCCN(C)C`: the inhibition came to 82% in assay [4] and 31% in assay [5].

(Values after ChEMBL document CHEMBL1154694, “Discovery of a 2,4-diamino-7-aminoalkoxyquinazoline as a potent and selective inhibitor of histone lysine methyltransferase G9a” (J Med Chem, 2009).)
